# Tests used:
# HT-29 cells [1] = experiment: calcium ion concentration in HT-29 cells (Fluo-8); format: cell-based; conditions: 10 uM, vs untreated group (vehicle), FIG. 76
# Description: It is known from studies using GPR39 deficient mice that calcium signaling is involved in the growth of intestinal tissue cells by GPR39 (Phil. Trans. R. Soc. B. 2016, 371:20150420). Therefore, it was confirmed whether calcium signaling is involved in the cell growth promoted by HKFY-34.
# Specifically, HT-29 cells were cultured in a 96-well black culture plate and then treated with HKFY-34, and the calcium ion concentration in the cells was measured using a Fluo-8 Direct™ calcium assay kit (Thermo Fisher Scientific). As a result, the calcium ion concentration in HT-29 cells was increased by HKFY-34 compared to the untreated group (vehicle) (FIG. 76).
# HT-29 cells [2] = experiment: LPS-induced inflammation cell model of inflammatory bowel disease (HT-29), qPCR and ELISA; format: cell-based; conditions: HT-29, 1 μg/mL LPS, vs LPS alone
# Description: In order to confirm the effect of HKFY-34 on anti-inflammatory action, which is one of the gastrointestinal tract protective function (barrier function) by GPR39, the anti-inflammatory activity of HKFY-34 was evaluated in a cell model of inflammatory bowel disease (IBD).
# Specifically, the HT-29 cells were treated with 1 μg/mL LPS to induce inflammation and prepare an inflammatory bowel disease model, and were treated with HKFY-34 at different concentrations. Thereafter, the expression levels of mRNA (FIG. 81) and protein (FIG. 82) of inflammation factors for ulcerative colitis were measured through qPCR and ELISA.
structure (smiles),measurement,setting,value
"CCCCCCCC(=O)NCCCC[C@H](NC(=O)[C@@H](N)Cc1cn(C(c2ccccc2)c2ccccc2)cn1)C(=O)N[C@H](Cc1ccc(C)cc1)C(=O)N[C@@H](Cc1ccc(O)cc1)C(=O)O [HKFY-34, ((R)-2-((S)-2-((S)-2-amino-3-(1-benzhydryl-1H-imidazol-4-yl)propanamido)-6-octanamidohexanamido)-3-(p-tolyl)propanoyl)-L-tyrosine]",calcium ion concentration in HT-29 cells,HT-29 cells [1],increased
same,secretion level of IL-1β,"HT-29 cells [2]; ELISA, FIG. 82",significantly decreased by HKFY-34 treatment in a dose-dependent manner
same,secretion level of IL-6,"HT-29 cells [2]; ELISA, FIG. 82",significantly decreased by HKFY-34 treatment in a dose-dependent manner
same,secretion level of IL-8,"HT-29 cells [2]; ELISA, FIG. 82",significantly decreased by HKFY-34 treatment in a dose-dependent manner
same,secretion level of TNF-α,"HT-29 cells [2]; ELISA, FIG. 82",significantly decreased by HKFY-34 treatment in a dose-dependent manner
same,mRNA expression level of IL-1β,"HT-29 cells [2]; qPCR, FIG. 81",significantly decreased by HKFY-34 treatment in a dose-dependent manner
same,mRNA expression level of IL-6,"HT-29 cells [2]; qPCR, FIG. 81",significantly decreased by HKFY-34 treatment in a dose-dependent manner
same,mRNA expression level of IL-8,"HT-29 cells [2]; qPCR, FIG. 81",significantly decreased by HKFY-34 treatment in a dose-dependent manner
same,mRNA expression level of TNF-α,"HT-29 cells [2]; qPCR, FIG. 81",significantly decreased by HKFY-34 treatment in a dose-dependent manner
